What was measured:
[1] = relative to therapeutic concentration range of 1.4 to 10.7 ng/ml; cited from earlier work
[2] = In vitro iontophoretic flux of rotigotine, three-chamber flow-through diffusion cells; format: in vitro ADME, human; conditions: donor pH 5, 500 μA/cm^2, 20° C.
Procedure: In vitro iontophoretic studies for the administration of rotigotine were carried out with three-chamber flow-through diffusion cells as described by […] al. ([…]. Boddé, “Validation and testing of a new iontophoretic continuous flow through transport cell”, J. Control. Release (1998), 51, […]). On both sides of the acceptor compartment human stratum corneum (SC) was situated. A dialysis membrane having a 5.000 Da cut-off was used as supporting membrane. The volume of the outer chambers was approximately 2 ml, while the volume of the acceptor compartment was 0.54 ml. The two outer chambers contained the silver plate (anode) or silver/silver chloride (cathode) driver […]. The donor phase consisted of rotigotine solution buffered with 5 mM citrate buffer (2.1 mM sodium citrate dihydrate and 2.9 mM citric acid). Using this set-up, a pH in the donor chamber of 5, a current density of 500 μA/cm^2, a pH in the acceptor chamber of 7.4, a temperature of 20° C. and an NaCl concentration in the donor chamber of 70 mmol/l, the flux of rotigotine was measured for different drug concentrations in the donor phase. Using a similar procedure as in Example 1 and a concentration of rotigotine of 1.4 mg/ml (3.98 mM), a pH in the donor chamber of 5, a current density of 500 μA/cm^2, a pH in the acceptor chamber of 7.4 and a temperature of 20° C., but substituting triethylammonium chloride (TEACl) or tributylammonium chloride (TBACl) for NaCl, the influence of the different cations on the flux was evaluated. The concentration of the chloride salts in the donor solution was 70 mmol/l. Using a similar procedure and the same parameters as in Example 2, the influence of reducing the pH in the acceptor chamber from 7.4 to 6.2 was evaluated for different chloride salts. The concentration of the chloride salts in the donor solution was 70 mmol/l.

[3] = Solubility of rotigotine in the donor phase; format: physicochemical
Text: To provide for an optimal flux across human stratum corneum it was also necessary to provide for a sufficient concentration of Cl^− ions for the electrode reaction in the donor phase.

[4] = relative to therapeutic range; cited from earlier work

CN1CCc2cccc3c2[C@H]1Cc1ccc(O)c(O)c1-3 [R-apomorphine, (R)-5,6,6a,7-tetrahydro-6-methyl-4H-dibenzoquinoline-11,12-diol]
concentrations obtained by iontophoretic administration [1]: lower end of the therapeutic concentration range

CCCN(CCc1cccs1)[C@H]1CCc2c(O)cccc2C1 [Rotigotine, (−)-5,6,7,8-tetrahydro-6-[propyl-[2-(2-thienyl)ethyl]-amino]-1-naphthalenol]
Flux Rotigotine ([2]; co-ions source NaCl 70 mmol/l, rotigotine 1.4 mg/ml (3.98 mM), acceptor pH 7.4): 53.2 nmol/cm^2/h
Flux Rotigotine ([2]; co-ions source NaCl 70 mmol/l, rotigotine 1.4 mg/ml, acceptor pH 6.2): 58.9 nmol/cm^2/h
Flux Rotigotine ([2]; co-ions source TBACl 70 mmol/l, rotigotine 1.4 mg/ml (3.98 mM), acceptor pH 7.4): 62.0 nmol/cm^2/h
Flux Rotigotine ([2]; co-ions source TBACl 70 mmol/l, rotigotine 1.4 mg/ml, acceptor pH 6.2): 76.5 nmol/cm^2/h
Flux Rotigotine ([2]; co-ions source TEACl 70 mmol/l, rotigotine 1.4 mg/ml (3.98 mM), acceptor pH 7.4): 72.8 nmol/cm^2/h
Flux Rotigotine ([2]; co-ions source TEACl 70 mmol/l, rotigotine 1.4 mg/ml, acceptor pH 6.2): 43.2 nmol/cm^2/h
Flux Rotigotine ([2]; rotigotine donor conc. 0.5 mg/ml (1.4 mM), NaCl 70 mmol/l, acceptor pH 7.4): 22.9 nmol/cm^2/h
Flux Rotigotine ([2]; rotigotine donor conc. 1.0 mg/ml (2.8 mM), NaCl 70 mmol/l, acceptor pH 7.4): 30.2 nmol/cm^2/h
Flux Rotigotine ([2]; rotigotine donor conc. 1.4 mg/ml (3.98 mM), NaCl 70 mmol/l, acceptor pH 7.4): 53.2 nmol/cm^2/h
solubility of rotigotine ([3]; effect of addition of chloride salts): reduces the solubility
solubility of rotigotine ([3]; effect of increasing pH): decreases when the pH is increased

CCCN(CCC)CCc1cccc2c1CC(=O)N2 [ropinirole]
fluxes obtained by iontophoretic administration [4]: lower end of the therapeutic range
